Ends that are not written are not given here.
What was measured:
[1] = tested on: THP-1-derived macrophages; test: Phagocytosis of E. coli-GFP by THP-1-derived macrophages; type: cell-based, human; conditions: E. coli-GFP pre-incubated with 1 mg/ml fibrils, 3 h on cells; CytD 2 µg/ml pre-treatment 30 min; confocal microscopy
HSV-2 = type: cell-based; conditions: serial dilutions of peptides added to ELVIS cells, infected 1 h later with HSV-2; lacZ enzyme activity one day post-infection; ±SD; one (inactive) to three (active) experiments in triplicates
[2] = Thioflavin T (ThT) assay of fibril formation; type: physicochemical; conditions: formation of ThT positive aggregates

Molecule	uptake of E. coli-GFP by macrophages [1]	IC50 (antiviral activity, HSV-2) (HSV-2) [µg/mL]	ThT signal (+/-) [2]
C=C1[C@@H](C)[C@H]2[C@H](Cc3ccccc3)NC(=O)[C@]23[C@H](OC(C)=O)/C=C/[C@@](C)(O)C(=O)[C@@H](C)C/C=C/[C@H]3[C@@H]1O [CytD, Cytochalasin D]	prevented the uptake of any bacteria		
AAHLPAEFTPAVHASLDKFLA [HBA(111–131)]		> 130	-
ASVSTVL [HBA 131-137]		> 130	+
KFLASVST [HBA 128-135]		> 130	-
LASVSTVL [HBA 130-137]		> 130	+
SVSTVL [HBA 132-137]		> 130	-
SVSTVLTSKYR [HBA 132-142]		> 130	-

Reference: paper PMC10191403, “The C-terminal 32-mer fragment of hemoglobin alpha is an amyloidogenic peptide with antimicrobial properties” (Cellular and Molecular Life Sciences: CMLS, 2023)
